Among the data in ChEMBL document CHEMBL4265897, “Discovery of benzothiazole amides as potent antimycobacterial agents” (Bioorg Med Chem Lett, 2018) are MIC values, retold here.

≈ marks a conversion by molar mass, not a printed value. Bounds are passed on as bounds.

The term MIC denotes the lowest concentration that inhibits growth of the organism.

The subject of one assay is Mycobacterium avium. Kind of assay: Antimycobacterial activity against Mycobacterium avium 101 by CLSI method. The format is functional.
Assay [1] deals with Mycobacterium intracellulare. Kind of assay: Antimycobacterial activity against Mycobacterium intracellulare 1956 by CLSI method. The class given is functional.
The test system of assay [2] is Mycobacterium tuberculosis. Put plainly: Antimycobacterial activity against Mycobacterium tuberculosis H37Rv MC2 6206 by CLSI method. The format is functional.
The test system of assay [3] is Mycobacteroides abscessus. Put plainly: Antimycobacterial activity against Mycobacterium abscessus 1 by CLSI method. The format is functional.
Assay [4] has as its system Mycobacteroides abscessus. Put plainly: Antimycobacterial activity against Mycobacterium abscessus 21 by CLSI method. The class given is functional.
For assay [5], the system named is Mycobacteroides abscessus. Put plainly: Antimycobacterial activity against Mycobacterium abscessus 79 by CLSI method. The format is functional.
Assay [6] relates to Mycobacteroides abscessus. Kind of assay: Antimycobacterial activity against Mycobacterium abscessus 103 by CLSI method. The class given is functional.
The test system of assay [7] is Mycobacteroides abscessus. Put plainly: Antimycobacterial activity against Mycobacterium massiliense 119 by CLSI method. The class given is functional, Mycobacterium abscessus subsp. massiliense.
The subject of a further assay is Mycobacteroides chelonae. Kind of assay: Antimycobacterial activity against Mycobacterium chelonae 93 by CLSI method. The class given is functional.
Assay [8] concerns Mycolicibacterium fortuitum. Put plainly: Antimycobacterial activity against Mycobacterium fortuitum 41 by CLSI method. The format is functional.
In assay [9] the test system is Mycolicibacterium peregrinum. Put plainly: Antimycobacterial activity against Mycobacterium peregrinum ATCC 700686 by CLSI method. The class given is functional.
Assay [10] has as its system Mycobacteroides abscessus. Kind of assay: Antimycobacterial activity against Mycobacterium abscessus ATCC 19977 by CLSI method. The class given is functional.

As to `CC12CCCC(C(=O)Nc3nc4ccc(Cl)cc4s3)(CCC1)C2`, the minimum inhibitory concentration (MIC) turned out to be 8 µg/mL (≈ 22.9 µM) in the assay on Mycobacterium avium; 4 µg/mL (≈ 11.5 µM) in assay [1]; 0.5 µg/mL (≈ 1.43 µM) in [2]; 0.25 µg/mL (≈ 0.717 µM) in assay [3]; 0.12 µg/mL (≈ 0.344 µM) in assay [4]; 0.12 µg/mL (≈ 0.344 µM) in assay [5]. The MIC is 0.12 µg/mL (≈ 0.344 µM) in assay [6]; 0.12 µg/mL (≈ 0.344 µM) in assay [7]; 0.25 µg/mL (≈ 0.717 µM) with Mycobacteroides chelonae; 0.25 µg/mL (≈ 0.717 µM) in assay [8]; 0.12 µg/mL (≈ 0.344 µM) in assay [9].
In the case of `CC12CC3CC(C)(C1)CC(C(=O)Nc1nc4ccccc4s1)(C3)C2`, the MIC was found to be 1 µg/mL (≈ 2.94 µM) in assay [10], 2 µg/mL (≈ 5.87 µM) against Mycobacterium avium, 2 µg/mL (≈ 5.87 µM) in assay [1] and 4 µg/mL (≈ 11.7 µM) in [2].
`CC1CC(C(=O)Nc2nc3cc(F)ccc3s2)CC(C)(C)C1` (stereo not given): the minimum inhibitory concentration (MIC) in [10] was 1 µg/mL (≈ 3.12 µM); with Mycobacterium avium, 16 µg/mL (≈ 49.9 µM); in assay [1], 16 µg/mL (≈ 49.9 µM); in assay [3], 2 µg/mL (≈ 6.24 µM); in [4] it was 0.5 µg/mL (≈ 1.56 µM); in assay [5], 2 µg/mL (≈ 6.24 µM). The MIC was 2 µg/mL (≈ 6.24 µM) in assay [7], 2 µg/mL (≈ 6.24 µM) in the assay on Mycobacteroides chelonae, 2 µg/mL (≈ 6.24 µM) in assay [8] and 4 µg/mL (≈ 12.5 µM) in assay [9].
As for `CC1CC(C(=O)Nc2nc3ccc(OC(F)F)cc3s2)CC(C)(C)C1` (stereo not given), the MIC in the assay on Mycobacterium avium was above 64 µg/mL; in assay [1], 8 µg/mL (≈ 21.7 µM); in [2] it was 2 µg/mL (≈ 5.43 µM); in [3], 1 µg/mL (≈ 2.71 µM); in assay [4], 0.5 µg/mL (≈ 1.36 µM); in assay [5] it was 0.5 µg/mL (≈ 1.36 µM). Besides, the minimum inhibitory concentration (MIC) in assay [6] amounted to 0.5 µg/mL (≈ 1.36 µM); in [7], 0.5 µg/mL (≈ 1.36 µM); against Mycobacteroides chelonae, 0.25 µg/mL (≈ 0.679 µM); in [8], 0.5 µg/mL (≈ 1.36 µM); in assay [9], 0.12 µg/mL (≈ 0.326 µM).
For the compound `O=C(Nc1nc2ccc(OC(F)(F)F)cc2s1)C1CCCCCC1`, the MIC in the assay on Mycobacterium avium is above 64 µg/mL; in assay [1], above 64 µg/mL; in assay [2], 64 µg/mL (≈ 179 µM); in assay [3] it was above 64 µg/mL; in assay [4] it was above 64 µg/mL; in assay [5], above 64 µg/mL. In addition, the minimum inhibitory concentration (MIC) is above 64 µg/mL in assay [6]; above 64 µg/mL in assay [7]; 32 µg/mL (≈ 89.3 µM) in the assay on Mycobacteroides chelonae; above 64 µg/mL in assay [8]; above 64 µg/mL in assay [9].
Consider `O=C(Nc1nc2ccc(C(F)(F)F)cc2s1)C1CCCC2(CC2)C1` (stereo not given), for which the MIC in assay [10] was 4 µg/mL (≈ 11.3 µM); in the assay on Mycobacterium avium, above 64 µg/mL; in assay [1], above 64 µg/mL; in [3] it was 8 µg/mL (≈ 22.6 µM); in assay [4] it was 2 µg/mL (≈ 5.64 µM); in [5], 1 µg/mL (≈ 2.82 µM). In addition, the MIC was 2 µg/mL (≈ 5.64 µM) in [7], 1 µg/mL (≈ 2.82 µM) against Mycobacteroides chelonae, above 64 µg/mL in assay [8] and 1 µg/mL (≈ 2.82 µM) in assay [9].
`CC1CC(C(=O)Nc2nc3cc(Br)ccc3s2)CC(C)(C)C1` (stereo not given): the MIC is 32 µg/mL (≈ 83.9 µM) in assay [10]; above 64 µg/mL in the assay on Mycobacterium avium; above 64 µg/mL in assay [1]; 32 µg/mL (≈ 83.9 µM) in [3]; 16 µg/mL (≈ 42 µM) in [4]; 16 µg/mL (≈ 42 µM) in [5]. For the same compound, the minimal inhibitory concentration (MIC) in assay [6] stood at 16 µg/mL (≈ 42 µM); in assay [7] it was 64 µg/mL (≈ 168 µM); against Mycobacteroides chelonae it was 16 µg/mL (≈ 42 µM); in assay [8], 16 µg/mL (≈ 42 µM); in assay [9], 4 µg/mL (≈ 10.5 µM).
Turning to `COc1ccc2nc(NC(=O)C3CC(C)CC(C)(C)C3)sc2c1` (stereo not given), the minimum inhibitory concentration (MIC) in assay [10] came out at 1 µg/mL (≈ 3.01 µM); against Mycobacterium avium, 16 µg/mL (≈ 48.1 µM); in [1], 8 µg/mL (≈ 24.1 µM); in assay [2] it was 8 µg/mL (≈ 24.1 µM); in assay [3], 2 µg/mL (≈ 6.02 µM); in assay [4], 1 µg/mL (≈ 3.01 µM). Besides, the minimal inhibitory concentration (MIC) in assay [5] turned out to be 1 µg/mL (≈ 3.01 µM); in assay [7], 0.5 µg/mL (≈ 1.5 µM); against Mycobacteroides chelonae, 0.25 µg/mL (≈ 0.752 µM); in [8], 2 µg/mL (≈ 6.02 µM); in [9] it was 1 µg/mL (≈ 3.01 µM).
Take `CC1CC(C(=O)Nc2nc3c(Cl)cccc3s2)CC(C)(C)C1` (stereo not given): the minimum inhibitory concentration (MIC) in [10] is 16 µg/mL (≈ 47.5 µM); in the assay with Mycobacterium avium it was above 64 µg/mL; in [1], 16 µg/mL (≈ 47.5 µM); in assay [3], 2 µg/mL (≈ 5.94 µM); in assay [4] it was 2 µg/mL (≈ 5.94 µM); in [5], 4 µg/mL (≈ 11.9 µM). The MIC in assay [7] turned out to be 1 µg/mL (≈ 2.97 µM); in the assay with Mycobacteroides chelonae it was 2 µg/mL (≈ 5.94 µM); in [8], 4 µg/mL (≈ 11.9 µM); in [9], 1 µg/mL (≈ 2.97 µM).
Consider `CC1CC(C(=O)Nc2nc3ccc(SC(F)(F)F)cc3s2)CC(C)(C)C1` (stereo not given), for which the minimal inhibitory concentration (MIC) in assay [10] is 16 µg/mL (≈ 39.8 µM); in the assay with Mycobacterium avium, above 64 µg/mL; in assay [1] it was above 64 µg/mL; in [3], 2 µg/mL (≈ 4.97 µM); in assay [4], 0.5 µg/mL (≈ 1.24 µM); in [5] it was 64 µg/mL (≈ 159 µM). The MIC in assay [6] was 0.5 µg/mL (≈ 1.24 µM); in [7] it was 0.25 µg/mL (≈ 0.621 µM); against Mycobacteroides chelonae, 0.12 µg/mL (≈ 0.298 µM); in assay [8], above 64 µg/mL; in assay [9], 8 µg/mL (≈ 19.9 µM).
Take `CC1(C(=O)Nc2nc3ccc(OC(F)(F)F)cc3s2)CCCCC1`: the minimal inhibitory concentration (MIC) against Mycobacterium avium was determined as 8 µg/mL (≈ 22.3 µM); in [1] it was 4 µg/mL (≈ 11.2 µM); in assay [2] it was 4 µg/mL (≈ 11.2 µM); in assay [4], 0.12 µg/mL (≈ 0.335 µM); in [5], 0.12 µg/mL (≈ 0.335 µM); in assay [6], 0.12 µg/mL (≈ 0.335 µM). The MIC worked out at 0.12 µg/mL (≈ 0.335 µM) in [7], 0.25 µg/mL (≈ 0.698 µM) against Mycobacteroides chelonae, 2 µg/mL (≈ 5.58 µM) in [8] and 0.5 µg/mL (≈ 1.4 µM) in assay [9].
